Assay results as given in patent US20140378307A1, “AROMATIC PHOSPHATE ESTERS AS AGROCHEMICAL FORMULATION COMPONENT” (SYNGENTA LIMITED, priority 2011, published 2014).

How the values were obtained:
Format in all cases: in vivo
[1] = system: Chenopodium album (CHEAL), Abutilon theophrasti (ABUTH), Setaria viridis (SETVI), Xanthium strumarium (XANST); experiment: Glasshouse weed kill, fomesafen with Phosflex 31L and comparison adjuvants
Source text: (§1) Unless otherwise stated within a specific Example, all aromatic phosphate esters employed were initially formulated as 20% w′w emulsions containing 2% w/w Gohsenol®GLO3 (a polyvinyl alcohol, Nippon Gohsei, Hull, UK) and 2% Pluronic® PE10500 (an ethylene glycol-propylene glycol block copolymer, BASF Aktiengesellschaft, Ludwighsafen, Germany) as surfactants.
The efficacy of the aromatic phosphate ester Phosflex®31L (isopropylated triphenyl phosphate) as an adjuvant for the herbicide fomesafen was tested against four weed species in the glasshouse and compared to the well-known tank mix adjuvant Turbocharge® as well as to a aromatic ester lacking the a phosphate moiety, butylene glycol benzoate. An agrochemical composition was prepared containing 0.5% v/v of the adjuvant Turbocharge with the test compound in a track sprayer, and was applied at a volume of 200 litres per hectare. Fomesafen was applied at a rate of either 60 or 120 grams per hectare. The other adjuvants were applied at a rate of 0.2% v/v. Fomesafen was applied to weeds which had been grown to the 1.3 or 1.4 leaf stage. […]
(§2) Each spray test was replicated three times. The efficacy of the herbicide was assessed visually and expressed as a percentage of the leaf area killed. Samples were assessed at time periods of 7, 14 and 21 days following application. […]

[2] = system: Chenopodium album (CHEAL), Abutilon theophrasti (ABUTH), Setaria viridis (SETVI), Xanthium strumarium (XANST); experiment: Glasshouse weed kill, fomesafen with tricresyl phosphate, Phosflex 362, triphenyl phosphate; settings: fomesafen 60 or 120 g/ha, 200 l/ha; Turbocharge 0.5% v/v, other adjuvants 0.2% v/v; leaf area killed; mean over two rates, three replicates, four weeds, 7, 14 and 21 days
Source text: as §1
The efficacy of the aromatic phosphate esters tricresyl phosphate, Phosflex®362 (2-ethylhexyl diphenyl phosphate) and triphenyl phosphate as adjuvants were tested in a glasshouse against four weed species using the herbicide fomesafen. An agrochemical composition was prepared containing 0.5% v/v of the adjuvant Turbocharge® in a track sprayer and was applied at a volume of 200 litres per hectare. The other adjuvants were tested at a rate of 0.2% v/v. Fomesafen was applied at a rate of either 60 or 120 grams per hectare on weeds which had been grown to the 1.3 or 1.4 leaf stage. […]
as §2

[3] = system: Polygonum convolvulus (POLCO), Brachiaria platyphylla (BRAPL), Digitaria sanguinalis (DIGSA), Ambrosia artemisiifolia (AMBAR); experiment: Glasshouse weed kill, mesotrione with Phosflex 31L and comparison adjuvants; settings: mesotrione 30 or 60 g/ha, 200 l/ha; Tween 20 0.5% v/v, other adjuvants 0.2% v/v; mean over two rates, three replicates, four weed species, three assessment timings
Source text: as §1
The efficacy of the aromatic phosphate ester Phosflex®31L (isopropylated triphenyl phosphate) as an adjuvant for the herbicide mesotrione was tested against four weed species in the glasshouse and compared to the known adjuvant Tween®20 as well as to a aromatic ester lacking the a phosphate moiety, butylene glycol benzoate. An agrochemical composition was prepared containing 0.5% v/v of the adjuvant Tween®20 with the test compound in a track sprayer, and was applied at a volume of 200 litres per hectare. The other adjuvants were tested at a rate of 0.2% v/v. Mesotrione was applied at a rate of either 30 or 60 grams per hectare to weeds which had been grown to the 1.3 or 1.4 leaf stage. The weed species were Polygonum convolvulus (POLCO), Brachiaria platyphylla (BRAPL), Digitaria sanguinalis (DIGSA) and Ambrosia artemisiifolia (AMBAR) […]

[4] = system: Polygonum convolvulus (POLCO), Brachiaria platyphylla (BRAPL), Digitaria sanguinalis (DIGSA), Amaranthus tuberculatus (AMATU); experiment: Glasshouse weed kill, mesotrione with tricresyl phosphate, Phosflex 362, triphenyl phosphate; settings: mesotrione 60 or 120 g/ha, 200 l/ha; Turbocharge 0.5% v/v, other adjuvants 0.2% v/v; leaf area killed; mean over two rates, three replicates, four weeds, 7, 14 and 21 days
[5] = system: Abutilon theophrasti (ABUTH), Chenopodium album (CHEAL), Digitaria sanguinalis (DIGSA), Setaria viridis (SETVI); experiment: Glasshouse weed kill, nicosulfuron with Phosflex 31L and comparison adjuvants; settings: nicosulfuron 30 or 60 g/ha, 200 l/ha; Atplus 411F 0.5% v/v, other adjuvants 0.2% v/v; leaf area killed; mean over two rates, three replicates, four weed species, 14 and 21 days
Source text: as §1
The efficacy of the aromatic phosphate ester Phosflex®31L (isopropylated triphenyl phosphate) as an adjuvant for the herbicide nicosulfuron was tested against four weed species in the glasshouse and compared to the well-known tank mix adjuvant Atplus®411F as well as to a aromatic ester lacking the a phosphate moiety, butylene glycol benzoate. An agrochemical composition was prepared containing 0.5% v/v of the adjuvant Atplus 411F with the test compound in a track sprayer, and was applied at a volume of 200 litres per hectare. The other adjuvants were used at a rate of 0.2% v/v. Nicosulfuron was applied at a rate of either 30 or 60 grams per hectare. Nicosulfuron was applied to weeds which had been grown to the 1.3 or 1.4 leaf stage. […]
(§3) Each spray test was replicated three times. The efficacy of the herbicide was assessed visually and expressed as a percentage of the leaf area killed. Samples were assessed at time periods of 14 and 21 days following application. […]

[6] = system: Chenopodium album (CHEAL), Abutilon theophrasti (ABUTH), Setaria viridis (SETVI), Digitaria sanguinalis (DIGSA); experiment: Glasshouse weed kill, nicosulfuron with tricresyl phosphate, Phosflex 362, triphenyl phosphate; settings: four weed species; for efficacy as adjuvant for nicosulfuron (in words): adjuvant 0.2% v/v, conclusion from Table 7
Source text: as §1
The efficacy of the aromatic phosphate esters tricresyl phosphate, Phosflex®362 (2-ethylhexyl diphenyl phosphate) and triphenyl phosphate were tested in a glasshouse against four weed species using the herbicide nicosulfuron. An agrochemical composition was prepared containing 0.5% v/v of the adjuvant Atplus® 411F in a track sprayer, and was applied at a volume of 200 litres per hectare. The other adjuvants were tested at a arte of 0.2% v/v. Nicosulfuron was applied at a rate of either 30 or 60 grams of pesticide per hectare to weeds which had been grown to the 1.3 or 1.4 leaf stage. The weed species were Chenopodium album (CHEAL), Abutilon theophrasti (ABUTH), Setaria viridis (SETVI) and Digitaria sanguinalis (DIGSA).
Each spray test was replicated three times. The efficacy of the herbicide was assessed visually and expressed as a percentage of the leaf area killed. Samples were assessed at time periods of 14 and 21 days following application. The results shown in Table 7 below are mean averages over the two rates of nicosulfuron, three replicates, four weed species and the two assessment timings, and are compared to the efficacy of nicosulfuron in the absence of adjuvant and nicosulfuron in the presence of the known tank mix adjuvant Atplus®411F.

[7] = system: Septoria tritici; settings: S. tritici on wheat, adjuvant 0.2% v/v, conclusion from Table 1
[8] = system: Septoria tritici; settings: S. tritici on wheat, adjuvant 0.2% v/v, conclusion from Table 2
[9] = system: Alopecurus myosuroides (ALOMY), Avena fatua (AVEFA), Lolium perenne (LOLPE), Setaria viridis (SETVI); experiment: Glasshouse weed kill, pinoxaden with Phosflex 31L and comparison adjuvants; settings: pinoxaden 7.5 or 15 g/ha, 200 l/ha; TEHP 0.5% v/v, other adjuvants 0.2% v/v; leaf area killed; mean over two rates, three replicates, four weed species, 14 and 21 days
Method: as §1
The efficacy of the aromatic phosphate ester Phosflex®31L (isopropylated triphenyl phosphate) as an adjuvant was tested in a glasshouse against four weed species using the herbicide pinoxaden. An agrochemical composition was prepared containing 0.2% v/v of the adjuvant in a track sprayer and was applied at a volume of 200 litres per hectare. Pinoxaden was applied at either 7.5 or 15 grams of pesticide per hectare on each of the weed species. The adjuvant TEHP was tested at a different rate from the other adjuvants, it being used at 0.5% v/v. The weed species and their growth stage at spraying were Alopecurus myosuroides (ALOMY; growth stage 13), Avena fatua (AVEFA; growth stage 12); Lolium perenne (LOLPE; growth stage 13), Setaria viridis (SETVI; growth stage 14).
as §3

[10] = system: Alopecurus myosuroides (ALOMY), Avena fatua (AVEFA), Lolium perenne (LOLPE), Setaria viridis (SETVI); experiment: Glasshouse weed kill, pinoxaden with tricresyl phosphate, Phosflex 362, triphenyl phosphate; settings: pinoxaden 7.5 or 15 g/ha, 200 l/ha; TEHP 0.5% v/v, other adjuvants 0.2% v/v; leaf area killed; mean over two rates, three replicates, four weeds, 14 and 21 days
Source text: as §1
The efficacy of the aromatic phosphate esters tricresyl phosphate, Phosflex®362 (2-ethylhexyl diphenyl phosphate) and triphenyl phosphate were tested in a glasshouse against four weed species using the herbicide pinoxaden. An agrochemical composition was prepared containing 0.5% v/v of the adjuvant TEHP in a track sprayer and was applied at a volume of 200 litres per hectare. The other adjuvants were tested at a rate of 0.2% v/v. Pinoxaden was applied at either 7.5 or 15 grams per hectare on each of the weed species. The weed species and their growth stage at spraying were Alopecurus myosuroides (ALOMY; growth stage 13), Avena fatua (AVEFA; growth stage 12); Lolium perenne (LOLPE; growth stage 13), Setaria viridis (SETVI; growth stage 14).
as §3

CS(=O)(=O)NC(=O)c1cc(Oc2ccc(C(F)(F)F)cc2Cl)ccc1[N+](=O)[O-] [Fomesafen, fomesafen]
Mean percentage kill, Mean across species ([1]; fomesafen 60 or 120 g/ha, 200 l/ha, Turbocharge 0.5% v/v, other adjuvants 0.2% v/v, leaf area killed, mean over two rates, three replicates, four weed species, 7, 14 and 21 days): 37.7 C %
Mean percentage kill, Mean across species [2]: 14.3%

CS(=O)(=O)c1ccc(C(=O)C2C(=O)CCCC2=O)c([N+](=O)[O-])c1 [Mesotrione, mesotrione]
Mean percentage kill, Mean across species [3]: 47.2 B %
Mean percentage kill, Mean across species [4]: 34.0 A %

COc1cc(OC)nc(NC(=O)NS(=O)(=O)c2ncccc2C(=O)N(C)C)n1 [Nicosulfuron, nicosulfuron]
Mean percentage kill, Mean across species [5]: 74.9 B %
Mean percentage kill, Mean across species ([6]; nicosulfuron 30 or 60 g/ha, 200 l/ha, Atplus 411F 0.5% v/v, other adjuvants 0.2% v/v, leaf area killed, mean over two rates, three replicates, 14 and 21 days): 42.5%

CCCCC(CC)COP(=O)(Oc1ccccc1)Oc1ccccc1 (stereo not shown) [Phosflex®362, 2-ethylhexyl diphenyl phosphate]
efficacy as adjuvant for isopyrazam (in words) [7]: more efficacious as an adjuvant than any of the other compounds tested
efficacy as adjuvant for cyproconazole (in words) [8]: performed best as an adjuvant out of the compounds tested
efficacy as adjuvant for nicosulfuron (in words) [6]: performing particularly well

CCc1cc(C)cc(CC)c1-c1c(OC(=O)C(C)(C)C)n2n(c1=O)CCOCC2 [Pinoxaden, pinoxaden]
Mean percentage kill, Mean across species [9]: 17.4 D %
Mean percentage kill, Mean across species [10]: 16.0 C %

O=C(OCCCCO)c1ccccc1 [the ester lacking the phosphate moiety, butylene glycol benzoate]
efficacy as adjuvant for fomesafen (in words) ([1]; four weed species, adjuvant 0.2% v/v, conclusion from Table 4): is not

tricresyl phosphate [tricresylphosphate]
efficacy as adjuvant for nicosulfuron (in words) [6]: performing particularly well
